Data as given in patent US20060111445A1, “Novel carboxylic acids and derivatives for the treatment of and preventing diabetes and dyslipidaemia” (priority 2003, published 2006).

Key:
[1] = molecular target: T1, chimeric protein PPARα-Gal4 (Homo sapiens, UniProt Q07869); experiment: PPAR activation, Gal4 chimera luciferase reporter in co-transfected CV-1 cells; assay type: cell-based; conditions: 50 μM, 18 hours contact, relative to control cells without product
T1 construct: Gal4 (fusion partner); expressed in transfected cells; host or cells: CV-1 cells (monkey kidney cells)
T1 sequence (Q07869 239-466 limits assumed): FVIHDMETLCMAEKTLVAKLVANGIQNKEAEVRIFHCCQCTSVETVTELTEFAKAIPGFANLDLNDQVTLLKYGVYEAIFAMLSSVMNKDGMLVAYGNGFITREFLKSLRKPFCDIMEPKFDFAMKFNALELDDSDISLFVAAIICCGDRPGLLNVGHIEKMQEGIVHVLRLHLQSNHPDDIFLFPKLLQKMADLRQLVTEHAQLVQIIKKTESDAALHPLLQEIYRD
Protocol: (§1) The measurement of the PPAR activation was performed according to a technique described by Lehmann et al. (1995, J. Biol. Chem. 270: 12953-12956).
(§2) CV-1 cells (monkey kidney cells) are co-transfected with an expression vector for the chimeric proteins PPARα-Gal4 or PPARγ-Gal4 and with a “reporter” plasmid that allows the expression of the luciferase gene placed under the control of a promoter containing Gal4 response elements.
(§3) The cells are plated into 96-well microplates and co-transfected using a commercial reagent with the reporter plasmid (pG5-tk-pGL3) and the expression vector for the chimeric protein (PPARα-Gal4 or PPARγ-Gal4). After incubating for 4 hours, whole culture medium (comprising 10% foetal calf serum) is added to the wells. After 24 hours, the medium is removed and replaced with whole medium comprising the test products (50 μM final). The products are left in contact with the cells for 18 hours. The cells are then lysed and the luciferase activity is measured using a luminometer. A PPAR activation factor can then be calculated by means of the activation of the expression of the reporter gene induced by the product (relative to the control cells that have not received any product).

[2] = molecular target: T2, chimeric protein PPARγ-Gal4 (Homo sapiens, UniProt P37231); experiment: as above; assay type: cell-based; conditions: 50 μM, 18 hours contact, relative to control cells without product
T2 construct: Gal4 (fusion partner); expressed in transfected cells; host or cells: CV-1 cells (monkey kidney cells)
T2 sequence (P37231 238-503 limits assumed): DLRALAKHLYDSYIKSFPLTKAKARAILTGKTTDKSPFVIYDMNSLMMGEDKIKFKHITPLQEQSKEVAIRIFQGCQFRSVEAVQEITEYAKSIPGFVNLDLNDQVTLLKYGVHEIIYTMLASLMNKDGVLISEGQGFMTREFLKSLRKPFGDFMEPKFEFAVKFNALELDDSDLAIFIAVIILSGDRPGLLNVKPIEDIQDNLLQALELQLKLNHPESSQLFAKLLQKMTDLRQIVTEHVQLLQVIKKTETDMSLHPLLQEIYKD
Protocol: as §1, §2, §3

[3] = test system: vector expressing Gal4 alone; experiment: Luciferase reporter control without the PPAR ligand binding domain in CV-1 cells; assay type: cell-based
Protocol: as §2
as §3, with “The products are left in contact with the cells for 18 hours.” left out
By way of example, the compound of Example 1, at a concentration of 50 μM, activates the chimeric protein PPARα-Gal4 by factor of 18, and the chimeric protein PPARγ-Gal4 by a factor of 39. In the absence of the binding domain for the PPAR α or γ ligand (vector expressing Gal4 alone), the luciferase activity measured in the presence of this product is zero.

melting point [°C] | PPAR activation factor (activation of the chimeric protein PPARα-Gal4) [1] | PPAR activation factor (activation of the chimeric protein PPARγ-Gal4) [2] | SMILES | luciferase activity in the absence of the binding domain for the PPAR α or γ ligand [3]
100 |  |  | CCCCCCc1cc2c(cc1SCCCC(=O)O)C(=O)CC2 [Example 42, 4-(6-hexyl-3-oxoindan-5-ylsulfanyl)butyric acid] | 
110 |  |  | CCCCCCc1cc2c(cc1NCC(=O)O)C(=O)CC2 [Example 36, (6-Hexyl-3-oxoindan-5-ylamino)acetic acid] | 
148 |  |  | CCCCCCc1cc2c(cc1OCCCC(=O)O)C(=NO)CC2 [Example 24, 4-(6-hexyl-3-(hydroxyimino)-5-indanyloxy]butyric acid] | 
 | 18 | 39 | CCCCCCc1cc2c(cc1OCCCC(=O)O)C(=O)CC2 [Example 1, 4-(6-hexyl-3-oxoindan-5-yloxy)butyric acid] | zero
144 |  |  | CCCCCCc1cc2c(cc1NCC(=O)O)C(=O)CC2 [Example 38, (6-Hexyl-3-oxoindan-5-ylamino)acetic acid] | 
